The values that follow are results of earlier work, collected in patent US20230279502A1, “IDENTIFICATION OF ESTROGEN RECEPTOR POSITIVE (ER+) BREAST CANCERS THAT WILL NOT DEVELOP TAMOXIFEN RESISTANCE” (Rutgers, The State University of New Jersey, priority 2020, published 2023).

Each structure is given as a SMILES string.

One series has as its system human cancer cell lines. The following applies: different human cancer cell lines, based on expression levels of the read-out genes; high AUCs = decreased sensitivity.
In a further series the test system is ER+ breast cancers. Conditions: ER+ breast cancer patients treated with tamoxifen.

Consider `CC/C(=C(\c1ccccc1)c1ccc(OCCN(C)C)cc1)c1ccccc1` [tamoxifen], for which the “Sensitivity to tamoxifen treatment (area under the dose-response curve)” value with human cancer cell lines is given as “decreased sensitivity”. Moreover, the “Treated patients that develop therapeutic resistance” value with ER+ breast cancers is listed as around 30%.
